Experimental data: US8557862B2, “Synergistic antimicrobial composition” (Dow Global Technologies LLC, priority 2009, dated 2013)

Tested on: oil field isolated anaerobic SRB consortium
Assay: Biocidal efficacy (MBC for complete bacteria kill) against sulfate reducing bacteria
Assay type: cell-based, Sulfate Reducing Bacteria (SRB)
Conditions: minimum tested biocide concentration for complete bacteria kill, alone or in the blend, 40° C., 24 hour, anaerobic salt solution, 10^6 to 10^7 CFU/mL
Description: Inside an anaerobic chamber (BACTRON III), a deaerated sterile salt solution (3.1183 g of NaCl, […] of NaHCO3, 47.70 mg of KCl, 72.00 mg of CaCl2, 54.49 mg of MgSO4, 172.28 mg of Na2SO4, 43.92 mg of Na2CO3 in 1 L water) was contaminated with an oil field isolated anaerobic SRB consortium at final bacterial concentrations of 10^6 to 10^7 CFU/mL. The aliquots of this contaminated water were then treated with glutaraldehyde and DXN, or the glutaraldehyde/DXN combination at different active concentration levels. After the mixtures were incubated at 40° C. for 24 hour, the biocidal efficacy was determined by minimum tested biocide concentration for complete bacteria kill in the aliquots (MBC). Table 1 summarizes the efficacy of each biocide and their blends, and the Synergy Index* of each combination.

`CC(=O)OC1CC(C)OC(C)O1` (centres unmarked) [0:1, 2,6-dimethyl-1,3-dioxan-4-yl acetate] was tested, and the “MBC (active ppm) DXN” value (DXN concentration) was 333.33 active ppm.
For `O=CCCCC=O` [1:0, glutaraldehyde], the “MBC (active ppm) glut” value (glutaraldehyde concentration) was 2.63 active ppm.
